According to PubChem BioAssay AID806 (SRMLSC, 2007):
The source made the active and inactive calls. No rule for the calls is given here.

Test system: virus-infected cells, CPE inhibition, dose response
Test: PubChem AID 806
Conditions: for EC90: measured here: EC90 CPE inhibition; for CC50: measured here: cytotoxicity, cell viability IC50

SMILES	EC50	EC90 [µM]	CC50 [µM]
COc1ccc(OC)c(C2=NOC(C(=O)Nc3cc(C)nn3-c3ccccc3)C2)c1 (stereo unspecified)	> 60 µM (inactive)	> 60	> 60
COc1cccc(Nc2ncnc3c2cnn3-c2cccc(C)c2)c1	> 60 µM (inactive)	> 60	> 60
COc1ccc(C(=O)C(CN2CCOCC2)c2ccccc2)cc1F (stereo unspecified)	> 60 µM (inactive)	> 60	> 60
CC(C)NC(=O)CN1CCN(c2ncccn2)CC1	> 60 µM (inactive)	> 60	> 60
Cc1nc2nc(-c3ccccc3)[nH]n2c(=O)c1Cc1ccccc1	> 60 µM (inactive)	> 60	> 60
COc1c(C(C)C)cc(NC(C)=O)cc1C(C)C	> 60 µM (inactive)	> 60	> 60
O=C1CSC(=S)N1Cc1cccnc1	> 60 µM (inactive)	> 60	50.8
O=C(c1ccc(S(=O)(=O)N2CCOCC2)cc1)N1CCc2ccccc2C1	> 60 µM (inactive)	> 60	> 60
Cc1ccc(OCC(=O)Nc2ccc(-c3nnc(-c4ccco4)o3)cc2)cc1	> 60 µM (inactive)	> 60	> 60
CCN(CC)C(=O)CSc1nnc2sc3ccccc3n12	> 60 µM (inactive)	> 60	> 60
O=C(Nc1ccccc1)N1CCn2c1nc1ccccc12	> 60 µM (inactive)	> 60	> 60
O=C(NCc1ccccc1)c1ccc(S(=O)(=O)N2CCCC2)cc1	> 60 µM (inactive)	> 60	> 60
Cc1ccc(S(=O)(=O)N2CCCCC2C(=O)N2CCN(C)CC2)cc1 (stereo unspecified)	> 60 µM (inactive)	> 60	> 60
O=c1[nH]c2cccnc2n1Cc1ccccc1	> 60 µM (inactive)	> 60	> 60
Cc1cccc(-n2ncc3c(Nc4ccc(F)cc4)ncnc32)c1	> 60 µM (inactive)	> 60	> 60
CC(c1ccco1)N(C(=O)COc1ccc(Cl)cc1Cl)c1ccccn1 (stereo unspecified)	> 60 µM (inactive)	> 60	> 60
CCOc1ncccc1C(=O)NCc1ccc(OC)cc1	> 60 µM (inactive)	> 60	> 60
CC(NC(=O)c1ccc(S(=O)(=O)N(C)C)cc1)c1ccccc1 (stereo unspecified)	> 60 µM (inactive)	> 60	> 60
O=C1CC(C(=O)Nc2ccccc2)C2(CCCCC2)O1 (stereo unspecified)	> 60 µM (inactive)	> 60	> 60
Cc1c(C(=O)Nc2ccc(Cl)cn2)oc2ccccc12	> 60 µM (inactive)	> 60	> 60
COc1ccccc1Cn1c(=O)c2ccccc2n2c(SCc3csc(C)n3)nnc12	> 60 µM (inactive)	> 60	> 60
Cc1ccc2c(C)c(C(=O)Nc3cccnc3)oc2c1	> 60 µM (inactive)	> 60	> 60
CC(=O)Nc1ccc(Nc2ncnc3c2cnn3-c2cccc(C)c2)cc1	> 60 µM (inactive)	> 60	> 60

SMILES	EC50	EC90 [µM]	CC50 [µM]
CCOC(=O)/C=C1\SCC(=O)N1CC(=O)NC(C)C	> 60 µM (inactive)	> 60	> 60
COc1ccc2c(c1)CCc1c(C(=O)N3CCCC3)noc1-2	> 60 µM (inactive)	> 60	> 60
O=C(O)c1ccc(CN2C(=O)CSC2=S)cc1	> 60 µM (inactive)	> 60	> 60
O=C(CN1CCN(c2ncccn2)CC1)NCCC1=CCCCC1		> 60	> 60
COc1ccc(-n2ncc3c(Nc4cccc(C)c4)ncnc32)cc1	> 60 µM (inactive)	> 60	> 60
O=C(Nc1ccc2nc3n(c(=O)c2c1)CCCCC3)c1ccccc1Cl	> 60 µM (inactive)	> 60	> 60
COc1ccc(NC(=O)C2CC(=O)OC23CCCCC3)cc1 (stereo unspecified)	> 60 µM (inactive)	> 60	> 60
O=C(Nc1cccc(O)c1)c1noc2c1CCc1ccccc1-2	> 60 µM (inactive)	> 60	> 60
O=C(c1cccs1)N1CCn2c1nc1ccccc12	> 60 µM (inactive)	> 60	> 60
COC(=O)c1ccc(CSc2nnc3n(Cc4ccccc4OC)c(=O)c4ccccc4n23)o1	> 60 µM (inactive)	> 60	> 60
O=C(CCS(=O)(=O)c1cccc2nsnc12)NCc1ccccc1	> 60 µM (inactive)	> 60	> 60
CCC1CCCCN1C(=O)Nc1cccc(NC(=O)N2CCCCC2CC)c1 (stereo unspecified)	> 60 µM (inactive)	> 60	> 60
Cc1ccccc1NC(=O)c1ccc(NC(=O)c2ccco2)cc1	> 60 µM (inactive)	> 60	> 60
CCCCOc1ccc(C(=O)C(CN2CCOCC2)c2ccccc2)cc1 (stereo unspecified)	> 60 µM (inactive)	> 60	> 60
O=C1CC(C(=O)Nc2cccc3ccccc23)C2(CCCC2)O1 (stereo unspecified)	> 60 µM (inactive)	> 60	> 60
CCOc1ccccc1Nc1ncnc2c1cnn2-c1ccccc1	> 60 µM (inactive)	> 60	> 60
OCC#CCSc1nnc(-c2ccncc2)o1	> 60 µM (inactive)	> 60	> 60
COCc1cc(=O)n2c(-c3ccc(C)cc3)n[nH]c2n1	> 60 µM (inactive)	> 60	> 60
COc1ccc(-n2ncc3c(N4CCc5ccccc54)ncnc32)cc1	> 60 µM (inactive)	> 60	> 60
Cc1ccc(C)c(Cc2c(C)nc3c(C(=O)N4CCOCC4)cnn3c2C)c1	> 60 µM (inactive)	> 60	> 60
CCC(Oc1ccccc1)C(=O)Nc1ccc(-c2nnc(-c3ccco3)o2)cc1 (stereo unspecified)	> 60 µM (inactive)	> 60	> 60
O=C(CSc1ccc2nnc(-c3cccnc3)n2n1)NCc1ccco1	> 60 µM (inactive)	> 60	> 60
O=C(CCS(=O)(=O)c1cccc2nsnc12)NC1CCCCCC1	> 60 µM (inactive)	> 60	> 60

SMILES	EC50	EC90 [µM]	CC50 [µM]
Cc1cc(C(=O)NCc2ccccc2)c(=O)[nH]c1C	> 60 µM (inactive)	> 60	> 60
CN1c2ccsc2C(O)=C(C(=O)Nc2ccccc2)S1(=O)=O	> 60 µM (inactive)	> 60	> 60
COCCNC(=O)C(c1ccccc1)N(CCOC)C(=O)Cn1nnc2ccccc21 (stereo unspecified)	> 60 µM (inactive)	> 60	> 60
O=C(Nc1ccc2c(c1)CCC2)c1cc2ccccc2o1	> 60 µM (inactive)	> 60	> 60
CC(c1ccco1)N(C(=O)COc1ccc(Cl)cc1)c1ccccn1 (stereo unspecified)	> 60 µM (inactive)	> 60	> 60
CC(C)(C)OC(=O)NCCc1nnc(SCc2ccc(Cl)cc2)o1	> 60 µM (inactive)	> 60	> 60
O=Nc1c(O)n(Cc2ccc(Cl)cc2)c2ccccc12	> 60 µM (inactive)	> 60	> 60
CCOCCCNC(=O)C1CCCCN1S(=O)(=O)c1ccc(F)cc1 (stereo unspecified)	> 60 µM (inactive)	> 60	> 60
O=C1CC(C(=O)Nc2ccc(C(=O)N3CCOCC3)cc2)C2(CCCCC2)O1 (stereo unspecified)	> 60 µM (inactive)	> 60	> 60
Cc1cccc(NC(=O)CCS(=O)(=O)c2cccc3nsnc23)c1C	> 60 µM (inactive)	> 60	> 60
Cc1nc2nc(-c3ccc(Cl)cc3)[nH]n2c(=O)c1Cc1ccccc1	> 60 µM (inactive)	> 60	> 60
CCOC(=O)/C=C1\SCC(=O)N1CC(=O)NC1CCCCC1	> 60 µM (inactive)	> 60	> 60
Cn1nc(C(=O)Nc2c(-c3ccccc3)nc3sccn23)c2ccccc2c1=O	> 60 µM (inactive)	> 60	> 60
COc1ccccc1Nc1ncnc2c1cnn2-c1cccc(C)c1	> 60 µM (inactive)	> 60	> 60
COc1ccc(OC)c(-n2c(SCC(=O)Nc3cc(C)on3)nnc2-c2c[nH]c3ccccc23)c1	> 60 µM (inactive)	> 60	> 60
CCCCN(C(=O)Cn1nnc2ccccc21)C(C(=O)NCCOC)c1ccc(OC)cc1 (stereo unspecified)	> 60 µM (inactive)	> 60	> 60
CC(C)CNC(=O)c1cccc(NC(=O)c2ccc(NC(=O)c3ccco3)cc2)c1	> 60 µM (inactive)	> 60	> 60
O=C(c1cc(-c2ccc(Cl)cc2)n(-c2ccc(Cl)c(Cl)c2)n1)N1CCOCC1	> 60 µM (inactive)	> 60	3.62
CC1CCCN(C(=O)Nc2cccc(NC(=O)N3CCCC(C)C3C)c2)C1C (stereo unspecified)	> 60 µM (inactive)	> 60	> 60
O=C(Nc1ccccc1-c1ccccc1)c1ccc(NC(=O)c2ccco2)cc1	> 60 µM (inactive)	> 60	> 60
CC(C)CCNC(=O)C1CCCCN1S(=O)(=O)c1ccc(F)cc1 (stereo unspecified)	> 60 µM (inactive)	> 60	> 60
Cc1cc(C(=O)Nc2c(C)n(C)n(-c3ccccc3)c2=O)c(C)o1	> 60 µM (inactive)	> 60	> 60
COc1ccc(-c2nnc(SCC#N)o2)cc1	> 60 µM (inactive)	> 60	19.7
